In the OPERA property sets (Mansouri et al. 2018):

Conditions: for log10 BCF / log10 biotransformation half-life (days): fish

Structure (SMILES) | melting point [°C] | boiling point [°C] | also measured
Nc1cccc(C(=O)c2cccc(N)c2)c1 | 174 | – | –
Cc1ccc(C(C)C)cc2c(C)ccc1-2 | 31.5 | – | –
O=C(NN=Cc1ccc([N+](=O)[O-])o1)c1ccc(O)cc1 | 298 | – | –
[Na][O]c1c(Cl)c(Cl)c(Cl)c(Cl)c1Cl | – | – | log10 BCF: 2.78
CC(C)N(C)C | – | 66 | –
Cc1cn([C@H]2C[C@H](O)[C@@H](CO)O2)c(=O)[nH]c1=O | 186 | – | –
CNc1ccc(N)cc1 | 36 | 258 | –
O=C(CCl)C(Cl)Cl | – | 172 | –
CCOC(=O)CCCC(C)=O | – | 222 | –
C=CC(=O)NC(C)(C)CC(C)=O | 57.5 | – | –
OC[C@H]1O[C@H](O)[C@H](O)[C@@H](O)[C@@H]1O | – | – | log10 vapour pressure (mmHg): -13.1
O=C(Nc1ccccc1)C(=O)Nc1ccccc1 | 254 | – | –
COc1ccc2[nH]c(S(=O)Cc3ncc(C)c(OC)c3C)nc2c1 (stereo not given) | 156 | – | –
CC(C)Nc1ccccc1 | -10 | 203 | –
CCc1ccccc1OC | – | 187 | –
COC(=O)c1ccc(C)cc1O | 27.5 | 243 | –
Nc1ccc(N)cc1 | 146 | 267 | ready biodegradability: not readily biodegradable
O=C1CCC(=O)N1c1ccccc1 | 156 | 400 | –
Clc1ccc(-c2nc3c4ccccc4ccn3n2)cc1 | 239 | – | –
c1ccc2c(c1)cc1ccc3cccc4c5ccccc5c2c1c34 | 162 | – | –
CCN(CC)C(=O)SCc1ccc(Cl)cc1 | 3.3 | – | log10 Koc (L/kg): 3.27; log10 vapour pressure (mmHg): -4.66; log10 BCF: 2.23; log10 biotransformation half-life (days): 0.66
CCCC(O)CC (stereo not given) | – | – | ready biodegradability: not readily biodegradable
N#Cc1cccc(C#N)c1 | 162 | – | ready biodegradability: not readily biodegradable; log10 BCF: 0.75; log10 biotransformation half-life (days): -0.62

Structure (SMILES) | melting point [°C] | boiling point [°C] | also measured
CCC(CC)CC(C)C | – | 134 | –
c1nnn[nH]1 | 157 | – | –
ICc1ccccc1 | 24.5 | – | log10 vapour pressure (mmHg): -0.903
Cc1cnccn1 | -29 | 137 | log10 Henry constant (atm·m³/mol): -5.66; log10 vapour pressure (mmHg): 0.906
CCC(C)(CC)C(C)(C)C | -42.5 | 170 | –
CC(C)(C)c1ccc2c(c1)C(=O)c1ccccc1C2=O | 99 | – | ready biodegradability: not readily biodegradable
COc1ccc(N)c(OC)c1 | 33.5 | – | –
C[C@]12CC[C@H]3[C@@H](CCC4=CC(=O)C=C[C@@]43C)[C@@H]1CC[C@H]2O | 165 | – | –
CO/N=C(/C(=O)OC)c1ccccc1COc1ccccc1C | 99 | – | log10 vapour pressure (mmHg): -7.76
c1ccc(-c2nc3ccccc3s2)cc1 | 115 | 371 | –
Cc1cccc2cc3ccccc3cc12 | 85.5 | – | –
C=C(C)[C@@H]1CC[C@@H](C)C[C@@H]1O | 78 | – | –
CCCC(C)C(C)(C)O (stereo not given) | – | 160 | –
C=C(C)C1CCC(C)(O)CC1 (stereo not given) | 32.5 | 210 | –
CC(=O)Nc1ccc(C)cc1C | 129 | – | –
CC1CCCC(C(C)C)C1 (stereo not given) | – | 166 | –
C[C@H]1CC[C@@H]2[C@@H](C)[C@H]3[C@H](C[C@H]4[C@@H]5CC=C6C[C@@H](O)CC[C@]6(C)[C@H]5CC[C@]34C)N2C1 | 218 | – | –
CCCc1ccc2c(c1)OCO2 | – | 228 | –
C=CI | – | 56 | –
O=C(CF)c1ccccc1 | 29 | – | –
O=C(Cl)c1cccc(C(=O)Cl)c1 | 43.5 | 276 | –
Nc1ccccc1C(F)(F)F | 35.5 | 187 | –
c1ccc(Sc2ccccc2)cc1 | -25.9 | 296 | log10 vapour pressure (mmHg): -2.12

Structure (SMILES) | melting point [°C] | boiling point [°C] | also measured
N#CCC=CCC#N | 76 | – | log10 vapour pressure (mmHg): -2.16
COCCC(=O)OC | – | 143 | –
CC(=O)OCC(=O)[C@@]1(O)[C@H](OC(C)=O)C[C@H]2[C@@H]3CCC4=CC(=O)C=C[C@]4(C)[C@@]3(F)[C@@H](O)C[C@@]21C | 235 | – | –
COc1ccc(Cl)cc1 | – | 198 | –
CCN(C=O)CC | – | 178 | log10 vapour pressure (mmHg): 0.0821
C[C@]12CC[C@H]3[C@@H](CCC4=C(Cl)C(=O)CC[C@@]43C)[C@@H]1CC[C@@H]2O | 189 | – | –
Oc1c(Cl)cc(Cl)cc1Br | 68 | – | –
C=CC(C)Cl (stereo not given) | – | 64.5 | log10 vapour pressure (mmHg): 2.18
Oc1ccccc1N=Nc1ccccc1O | 173 | – | –
O=[N+]([O-])c1cc(S(=O)(=O)c2ccc(F)c([N+](=O)[O-])c2)ccc1F | 194 | – | –
Cc1c(N)cccc1Cl | 1 | 245 | –
CC(C)(C)OOC(C)(C)CCC(C)(C)OOC(C)(C)C | 8 | – | ready biodegradability: not readily biodegradable; log10 BCF: 3.48; log10 biotransformation half-life (days): 0.77
CCCF | -159 | 2.5 | log10 vapour pressure (mmHg): 3.3
S=C=S | -112 | 46 | log10 Henry constant (atm·m³/mol): -1.84; log10 Koa: 2.28; log10 Koc (L/kg): 2.34; log10 vapour pressure (mmHg): 2.56; log10 BCF: 1.29
CCOP(=S)(OCC)SCS(=O)C(C)(C)C (stereo not given) | – | – | log10 Koc (L/kg): 2.18
CN1[C@@H](CC(=O)c2ccccc2)CCC[C@H]1C[C@H](O)c1ccccc1 | 130 | – | –
Nc1ccc(N=O)cc1 | 174 | – | –
CCCCCCCCCCCO | 19 | 243 | log10 vapour pressure (mmHg): -2.53; ready biodegradability: readily biodegradable
CC1=C(C)C(=O)OC1=O | 96 | 223 | –
COC(=O)C(F)(F)F | – | 43.2 | –
C#CCCC(=O)O | 57.7 | – | –
CCC1(CC2(c3cccc(Cl)c3)CO2)C(=O)c2ccccc2C1=O (stereo not given) | 61 | – | log10 vapour pressure (mmHg): -7.7
O=C1CCCCC1=O | 40 | 194 | –

Structure (SMILES) | melting point [°C] | boiling point [°C] | also measured
CCC(=O)c1cccc(C)c1 | – | 235 | –
CCC(C)CCCC(C)CCCC(C)C (stereo not given) | – | – | log10 biotransformation half-life (days): 1.36
CCCCCCl | -99 | 108 | log10 Henry constant (atm·m³/mol): -1.62; log10 vapour pressure (mmHg): 1.52
CC(=O)Nc1cccc(F)c1 | 83 | – | log10 Koc (L/kg): 1.57
c1ccn2cccc2c1 | 75 | 205 | –
CC=CCCc1ccccn1 | – | 216 | –
CC(C)(C)c1cccc(C(C)(C)C)c1O | 39 | 253 | ready biodegradability: not readily biodegradable
CSCCSC | – | 183 | –
C=CC[C@H](C)O | – | 116 | –
CCCCO[N+](=O)[O-] | – | 133 | log10 Henry constant (atm·m³/mol): -2.81; log10 vapour pressure (mmHg): 0.919
CCCCCCCC(=O)OC(C)C | – | – | log10 vapour pressure (mmHg): -0.963
O=CCO | 97 | – | log10 Henry constant (atm·m³/mol): -7.62
Cc1ccc(S(=O)O)cc1 | 86.5 | – | –
O=C([O-])c1ccccc1.[NH4+] | 194 | – | –
N#Cc1c[nH]cc1-c1cccc(Cl)c1Cl | 147 | – | log10 vapour pressure (mmHg): -7.08
ClC1=C(Cl)C2(Cl)C3CC(Cl)(Cl)CC3C1(Cl)C2(Cl)Cl (stereo not given) | – | – | log10 BCF: 4.3; log10 biotransformation half-life (days): 2.23
Cc1cc(F)ccc1N | 14.2 | – | –
Cc1ccc2oc(C)nc2c1 | – | 218 | –
Cc1ccc(C)c(C)c1 | -43.8 | 169 | log10 Henry constant (atm·m³/mol): -2.21; log10 biodegradation half-life (days): 0.602; log10 vapour pressure (mmHg): 0.322; ready biodegradability: not readily biodegradable; log10 BCF: 2.08; log10 biotransformation half-life (days): -0.31
CCOOCC | -70 | 65 | –
CCC(C)CC(C)(C)CC (stereo not given) | – | 156 | –
CC(C)(Oc1ccc(Cl)cc1)C(=O)OCCCOC(=O)C(C)(C)Oc1ccc(Cl)cc1 | 52 | – | –
C=CCn1c(=O)n(CC=C)c(=O)n(CC=C)c1=O | 20.5 | – | ready biodegradability: not readily biodegradable
